Experimental data taken from patent US10183950B2, “Thienopyrimidine inhibitors of atypical protein kinase C” (Cancer Research Technology Limited, priority 2011, dated 2019).
pIC50: −log10 of the molar value. Where two headings read alike, the source gives them in different places.

Biological target: T1, full-length human PKCι (Homo sapiens, UniProt P41743)
T1 construct: Recombinant, full-length human PKCι expressed in Sf21 insect cells is also commercially available; purchased; host or cells: Sf21 insect cells
T1 sequence (P41743 1-596): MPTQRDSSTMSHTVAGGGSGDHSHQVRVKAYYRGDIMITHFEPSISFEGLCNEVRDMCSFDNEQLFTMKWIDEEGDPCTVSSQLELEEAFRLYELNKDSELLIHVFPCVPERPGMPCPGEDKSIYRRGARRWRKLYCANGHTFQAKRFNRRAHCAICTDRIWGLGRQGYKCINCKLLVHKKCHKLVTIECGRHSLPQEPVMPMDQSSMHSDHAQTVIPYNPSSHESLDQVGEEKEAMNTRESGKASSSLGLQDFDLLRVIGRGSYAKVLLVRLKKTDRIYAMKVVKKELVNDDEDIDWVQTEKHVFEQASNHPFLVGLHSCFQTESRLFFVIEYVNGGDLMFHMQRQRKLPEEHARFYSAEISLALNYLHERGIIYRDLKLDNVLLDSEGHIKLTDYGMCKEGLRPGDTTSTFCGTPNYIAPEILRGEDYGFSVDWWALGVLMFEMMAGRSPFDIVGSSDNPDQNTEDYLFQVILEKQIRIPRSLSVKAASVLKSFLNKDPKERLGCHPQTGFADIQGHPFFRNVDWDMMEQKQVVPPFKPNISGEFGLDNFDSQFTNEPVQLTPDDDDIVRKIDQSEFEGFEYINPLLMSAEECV
Experiment: PKCι IC50 IMAP fluorescence polarisation assay, full-length enzyme
Type: biochemical
Conditions: full length PKCi at 15 μM ATP

[1] = read-out: IC50 in IMAP assay against full length PKCi (Activity)
[2] = read-out: IC50 in IMAP assay against full length PKCi

| SMILES | pIC50 [1] | pIC50 [2] |
| --- | --- | --- |
| CN1CCc2c(sc3nc(-c4ccncc4)nc(NCCN)c23)C1 [compound 113, N*1*-(7-Methyl-2-pyridin-4-yl-5,6,7,8-tetrahydro-pyrido[4′,3′:4,5]thieno[2,3-d]pyrimidin-4-yl)-ethane-1,2-diamine] | 4.40 to 5.00 | – |
| N[C@H](CNc1nc(-c2cc[n+]([O-])cc2)nc2c(-c3ccn[nH]3)csc12)Cc1ccccc1 [compound 565, (S)—N*1*-[2-(1-Oxy-pyridin-4-yl)-7-(2H-pyrazol-3-yl)-thieno[3,2-d]pyrimidin-4-yl]-3-phenyl-propane-1,2-diamine] | – | 5.00 to 6.00 |
| CC(C)(C)c1cc2nc(-c3ccncc3)nc(NC[C@@H](N)Cc3ccccc3)c2s1 [compound 324, (S)-N*1*-(6-tert-Butyl-2-pyridin-4-yl-thieno[3,2-d]pyrimidin-4-yl)-3-phenyl-propane-1,2-diamine] | – | 4.40 to 5.00 |
| N[C@H](CNc1nc(-c2ccncc2)nc2c(C#CC3(O)CCCC3)csc12)Cc1ccccc1 [compound 528] | – | > 7.00 |
| Fc1c(-c2nc(N[C@@H]3CCNC3)c3sccc3n2)ccnc1Nc1cnccn1 [compound 585, {2-[3-Fluoro-2-(pyrazin-2-ylamino)-pyridin-4-yl]-thieno[3,2-d]pyrimidin-4-yl}-(R)-pyrrolidin-3-yl-amine] | – | 5.00 to 6.00 |
| N[C@H](CNc1nc(-c2ccncc2)nc2c(-c3cn[nH]n3)csc12)Cc1ccccc1 [compound 547, (S)-3-Phenyl-N*1*-[2-pyridin-4-yl-7-(3H-[1,2,3]triazol-4-yl)-thieno[3,2-d]pyrimidin-4-yl]-propane-1,2-diamine] | – | > 7.00 |
| CC(C)(O)C#Cc1csc2c(N[C@@H]3CCNC3)nc(-c3ccncc3)nc12 [compound 514, 2-Methyl-4-[2-pyridin-4-yl-4-((R)-pyrrolidin-3-ylamino)-thieno[3,2-d]pyrimidin-7-yl]-but-3-yn-2-ol] | – | 6.00 to 7.00 |
| Fc1c(-c2nc(N[C@@H]3CCNC3)c3sccc3n2)ccnc1Nc1ccccc1 [compound 619, [2-(3-Fluoro-2-phenylamino-pyridin-4-yl)-thieno[3,2-d]pyrimidin-4-yl]-(R)-pyrrolidin-3-yl-amine] | – | 4.40 to 5.00 |
| N[C@H](CNc1nc(-c2ccncc2)nc2sc3c(c12)CCCC3)Cc1ccc(O)cc1 [compound 55, 4-[(S)-2-Amino-3-(2-pyridin-4-yl-5,6,7,8-tetrahydro-benzo[4,5]thieno[2,3-d]pyrimidin-4-ylamino)-propyl]-phenol] | 5.00 to 6.00 | – |
| O=C(Nc1cc(-c2nc(N[C@H]3CNC[C@@H]3O)c3sccc3n2)ccn1)c1cccs1 [compound 627, Thiophene-2-carboxylic acid {4-[4-((3S,4S)-4-hydroxy-pyrrolidin-3-ylamino)-thieno[3,2-d]pyrimidin-2-yl]-pyridin 2-yl}-amide] | – | 5.00 to 6.00 |
| c1cc(-c2nc(N[C@@H]3CCNC3)c3sccc3n2)cc(NCC2CC2)n1 [compound 597, {2-[2-(Cyclopropylmethyl-amino)-pyridin-4-yl]-thieno[3,2-d]pyrimidin-4-yl}-(R)-pyrrolidin-3-yl-amine] | – | 5.00 to 6.00 |
| CC[C@H](Nc1cc(-c2nc(N[C@@H]3CCNC3)c3sccc3n2)ccn1)c1ccccc1 [compound 589, {2-[2-((S)-1-Phenyl-propylamino)-pyridin-4-yl]-thieno[3,2-d]pyrimidin-4-yl}-(R)-pyrrolidin-3-yl-amine] | – | 5.00 to 6.00 |
| CS(=O)(=O)Nc1cc(-c2nc(N[C@@H]3CCNC3)c3sccc3n2)ccn1 [compound 624, N-{4-[4-((R)-Pyrrolidin-3-ylamino)-thieno[3,2-d]pyrimidin-2-yl]-pyridin-2-yl}-methanesulfonamide] | – | 4.40 to 5.00 |
| N[C@H](CNc1nc(-c2ccncc2F)nc2c(C#CCO)csc12)Cc1ccccc1 [compound 506, 3-[4-((S)-2-Amino-3-phenyl-propylamino)-2-(3-fluoro-pyridin-4-yl)-thieno[3,2-d]pyrimidin-7-yl]-prop-2-yn-1-ol] | – | > 7.00 |
| CCCCC(=O)N1CCc2c(sc3nc(-c4ccncc4)nc(NCCN)c23)C1 [compound 110, 1-[4-(2-Amino-ethylamino)-2-pyridin-4-yl-5,8-dihydro-6H-pyrido[4′,3′:4,5]thieno[2,3-d]pyrimidin-7-yl]-pentan-1-one] | 4.40 to 5.00 | – |
| CCN1CCc2c(sc3nc(-c4ccncc4)nc(NCCN)c23)C1 [compound 112, N*1*-(7-ethyl-2-pyridin-4-yl-5,6,7,8-tetrahydro-pyrido[4′,3′:4,5]thieno[2,3-d]pyrimidin-4-yl)-ethane-1,2-diamine] | 4.40 to 5.00 | – |
| Cc1sc2c(NC[C@@H](N)Cc3ccccc3)nc(-c3ccncc3)nc2c1-c1ccn[nH]1 [compound 388, (S)—N*1*-[6-methyl-7-(2H-pyrazol-3-yl)-2-pyridin-4-yl-thieno[3,2-d]pyrimidin-4-yl]-3-phenyl-propane-1,2-diamine] | – | > 7.00 |
| O=C(Nc1cc(-c2nc(N[C@@H]3CCNC3)c3sccc3n2)ccn1)c1cnccn1 [compound 615, Pyrazine-2-carboxylic acid {4-[4-((R)-pyrrolidin-3-ylamino)-thieno[3,2-d]pyrimidin-2-yl]-pyridin-2-yl}-amide] | – | 5.00 to 6.00 |
| CCC(=O)N1CCc2c(sc3nc(-c4ccncc4)nc(NCCN)c23)C1 [compound 106, 1-[4-(2-Amino-ethylamino)-2-pyridin-4-yl-5,8-dihydro-6H-pyrido[4′,3′:4,5]thieno[2,3-d]pyrimidin-7-yl]-propan-1-one] | 4.40 to 5.00 | – |
| Brc1csc2c(N3CCNCC3)nc(-c3ccncc3)nc12 [compound 350, 7-Bromo-4-piperazin-1-yl-2-pyridin-4-yl-thieno[3,2-d]pyrimidine] | – | 6.00 to 7.00 |
| Cc1sc2c(NC[C@H](C)N)nc(-c3ccncc3)nc2c1Br [compound 331, (S)-N*1*-(7-Bromo-6-methyl-2-pyridin-4-yl-thieno[3,2-d]pyrimidin-4-yl)-propane-1,2-diamine] | – | 5.00 to 6.00 |
| Cc1sc2c(NC[C@H](N)Cc3ccccc3)nc(-c3ccncc3)nc2c1Br [compound 329, (R)-N*1*-(7-Bromo-6-methyl-2-pyridin-4-yl-thieno[3,2-d]pyrimidin-4-yl)-3-phenyl-propane-1,2-diamine] | – | 5.00 to 6.00 |
| NC(=O)CN1CC[C@@H](Nc2nc(-c3ccnc(Nc4ccccc4)c3)nc3ccsc23)C1 [compound 631, 2-{(R)-3-[2-(2-Phenylamino-pyridin-4-yl)-thieno[3,2-d]pyrimidin-4-ylamino]-pyrrolidin-1-yl}-acetamide] | – | 4.40 to 5.00 |
| Cc1[nH]ncc1-c1nc(N[C@@H]2CCNC2)c2sccc2n1 [compound 633, [2-(5-Methyl-1H-pyrazol-4-yl)-thieno[3,2-d]pyrimidin-4-yl]-(R)-pyrrolidin-3-yl-amine] | – | 4.40 to 5.00 |
| c1ccc(Nc2csc3c(N[C@@H]4CCNC4)nc(-c4ccncc4)nc23)nc1 [compound 487, 2-Pyridin-4-yl-N*7*- pyridin-2-yl-N*4*-(R)-pyrrolidin-3-yl-thieno[3,2-d]pyrimidine-4,7-diamine] | – | 5.00 to 6.00 |
| NC(CNc1nc(-c2ccncc2F)nc2c(-c3ccsc3)csc12)Cc1ccccc1 (stereo in doubt) [compound 431, (R)-N*1*-[2-(3-Fluoro-pyridin-4-yl)-7-thiophen-3-yl-thieno[3,2-d]pyrimidin-4-yl]-3-phenyl-propane-1,2-diamine] | – | 5.00 to 6.00 |
